Assay results: US11485720B2, “Anti-infective agents” (University of Dundee, priority 2016, dated 2022)
In brackets after ≈: the same amount, converted by molar mass.

Assays:
Assay type in all cases: cell-based
[1] = tested on: Leishmania donovani; assay: Leishmania donovani intramacrophage inhibition assay (Ld-INMAC); settings: intramacrophage amastigotes in THP-1 cells, read-out: Ld-INMAC pEC50 (converted)
Procedure: Assay Method for Measurement of In Vitro Inhibition of Leishmania donovani.
These experiments were run in accordance with the method as detailed herein and results from these experiments are provided in the Experimental Results hereinafter.
The intramacrophage Leishmania assay was performed as described in de Rycker et al (Antimicrob Agents Chemother, 2013 July; 57(7):2913-22. doi: 10.1128/AAC.02398-12). Briefly, 1 μl of compound was pre-dispensed into 384 well sterile intermediary plates. For single point screening, amphotericin B was added to all wells of column 24 as a positive control (final concentration 2 μM) and DMSO to column 23. For potency determinations, ten-point, one in three dilution curves were created with the highest concentration being 50 μM and on each plate a control curve of amphotericin B was included. Controls were as follows: columns 11 and 12: DMSO, columns 23 and 24: amphotericin B (final concentration 2 μM). To the intermediary plates, 100 μl of THP-1 media was added and plates were shaken for >5 min to ensure complete mixing. THP-1 cells (8,000 per well, 50 μl) were plated into black clear-bottom 384 well plates (Corning) in presence of 10 nM PMA. After 20 min at room temperature, the plates were incubated at 37° C. under 5% CO2 in a humidified incubator for 75 h. The cells were then washed with […] sterile phosphate buffered saline (PBS) supplemented with 1 mM CaCl2, 0.5 mM MgCl2, 0.1% (w/v) bovine serum albumin (PBS-A) and amastigotes were added to all wells at a multiplicity of infection of 5 (40,000 amastigotes per well). After 40 min at room temperature, plates were returned to the incubator. Amastigotes were incubated in the presence of macrophages for 16 h. Any remaining extracellular amastigotes were subsequently removed with an overflow wash of 1 ml PBS-A per well (wash buffer is being aspirated from the top of the well as it is being dispensed) followed by addition of 25 μl of the compound pre-dilutions using a Matrix Hydra DT pipetting station. The final dilution of each compound was 200-fold. Plates were incubated for 72 h and then washed (250 μl PBS-A) and fixed (4% (v/v) formaldehyde-PBS, 30 min, room temperature). After fixation, the wells were washed with 250 μl PBS, stained (10 μg/ml DAPI, 0.4 μg ml-1 HCS Cellmask Deep Red in PBS+0.1% (v/v) Triton X-100, 30 min, room temperature) and washed with 250 μl PBS. Finally, PBS+0.05% (v/v) thimerosal was added to the wells, the plates were sealed and imaged on a high-content microscope (GE IN Cell 1000 or GE IN Cell 2000) using a 10× objective. Image analysis was carried out with GE IN Cell Analyzer 1000 Workstation using the “Multi Target Analysis” module. […]

[2] = tested on: Cryptosporidium parvum; assay: In vitro Crytosporidium inhibition assay; settings: Cryptosporidium parvum; read-out: Cryptosporidium parvum pEC50 (converted)
From the text: Assay Method for Measurement of In Vitro Inhibition of Crytosporidium.
These experiments were run in accordance with the method of Besssoff et. al. Antimicrob. Agents Chemother. 2013, 57:1804-1814. Results from these experiments are provided in the Experimental Results hereinafter.

[3] = tested on: Leishmania donovani; assay: Ld-cAxAm-TP-pMIC assay; settings: read-out: Ld-cAxAm-TP-pMIC pEC50 (converted)
[4] = tested on: THP-1 cells; assay: THP-1 host cell count in intramacrophage Leishmania assay; settings: Homo sapiens, host cell toxicity, read-out: THP1 pEC50 (converted)
Procedure: The intramacrophage Leishmania assay was performed as described in de Rycker et al (Antimicrob Agents Chemother, 2013 July; 57(7):2913-22. doi: 10.1128/AAC.02398-12). Briefly, 1 μl of compound was pre-dispensed into 384 well sterile intermediary plates. For single point screening, amphotericin B was added to all wells of column 24 as a positive control (final concentration 2 μM) and DMSO to column 23. For potency determinations, ten-point, one in three dilution curves were created with the highest concentration being 50 μM and on each plate a control curve of amphotericin B was included. Controls were as follows: columns 11 and 12: DMSO, columns 23 and 24: amphotericin B (final concentration 2 μM). To the intermediary plates, 100 μl of THP-1 media was added and plates were shaken for >5 min to ensure complete mixing. THP-1 cells (8,000 per well, 50 μl) were plated into black clear-bottom 384 well plates (Corning) in presence of 10 nM PMA. After 20 min at room temperature, the plates were incubated at 37° C. under 5% CO2 in a humidified incubator for 75 h. The cells were then washed with […] sterile phosphate buffered saline (PBS) supplemented with 1 mM CaCl2, 0.5 mM MgCl2, 0.1% (w/v) bovine serum albumin (PBS-A) and amastigotes were added to all wells at a multiplicity of infection of 5 (40,000 amastigotes per well). After 40 min at room temperature, plates were returned to the incubator. Amastigotes were incubated in the presence of macrophages for 16 h. Any remaining extracellular amastigotes were subsequently removed with an overflow wash of 1 ml PBS-A per well (wash buffer is being aspirated from the top of the well as it is being dispensed) followed by addition of 25 μl of the compound pre-dilutions using a Matrix Hydra DT pipetting station. The final dilution of each compound was 200-fold. Plates were incubated for 72 h and then washed (250 μl PBS-A) and fixed (4% (v/v) formaldehyde-PBS, 30 min, room temperature). After fixation, the wells were washed with 250 μl PBS, stained (10 μg/ml DAPI, 0.4 μg ml-1 HCS Cellmask Deep Red in PBS+0.1% (v/v) Triton X-100, 30 min, room temperature) and washed with 250 μl PBS. Finally, PBS+0.05% (v/v) thimerosal was added to the wells, the plates were sealed and imaged on a high-content microscope (GE IN Cell 1000 or GE IN Cell 2000) using a 10× objective. Image analysis was carried out with GE IN Cell Analyzer 1000 Workstation using the “Multi Target Analysis” module. Settings for segmentation were as follows: nuclei: minimum area: 142.384 μm^2, sensitivity: 81, method: top-hat; cells: characteristic area: 2500 μm^2, sensitivity: 60, method: multiscale top-hat; organelles (amastigotes): granule size 1-3, 3 scales, sensitivity: 90, detection in entire cell. […]

[5] = tested on: M. tuberculosis H37Rv; assay: In vitro inhibition of M. tuberculosis H37Rv (MIC, resazurin); settings: Mycobacterium tuberculosis, read-out: Mtb MIC
[6] = tested on: Hep G2; assay: Hep G2 in-vitro cytotoxicity assay; settings: Homo sapiens, HepG2, read-out: Hs HEPG2 pEC50 (converted)
In short: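 Hep G2 human hepatocyte carcinoma cells serve as a general mammalian cell toxicity indicator, following the Mersch-Sundermann procedure.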

With `O=C(NCC1CCCCC1)c1cc(=O)c2cc(F)cc(O)c2o1` [Example 70, N-(cyclohexylmethyl)-6-fluoro-8-hydroxy-4-oxo-4H-chromene-2-carboxamide] the EC50 [1] was 15.8 µM, the EC50 [2] was 0.0398 µM and the EC50 [3] was 0.794 µM. It also gave an EC50 [4] of 50.1 µM, an MIC [5] of 30 µM (≈ 9.58 µg/mL) and an EC50 [6] of 31.6 µM.
